What was measured:
KRAS G12V = target: T1, KRAS G12V (Homo sapiens, UniProt P01116, G12V); assay: HTRF assay, KRAS G12V interaction with SOS1; format: biochemical; details: bins <500 nM / 500 nM to 1000 nM, read-out: Inhibition of KRAS G12V (IC50)
T1 construct: made in house; host or cells: E. coli, e.g. BL21 (DE3)

KRAS G12S = target: T2, KRAS G12S (Homo sapiens, UniProt P01116, G12S); assay: HTRF assay, KRAS G12S interaction with SOS1; format: biochemical; details: bins <500 nM / 500 nM to 1000 nM, read-out: Inhibition of KRAS G12S (IC50)
T2 construct: made in house; host or cells: E. coli, e.g. BL21 (DE3)

MiaPaca2 cells = assay: Ras cellular assay, growth of cells with K-Ras G12C mutation; format: cell-based; details: Homo sapiens, MIA PaCa-2; cell proliferation assay; bins ≤500 nM / >500 nM; read-out: Inhibition of MiaPaca2 Cells (IC50)
In short: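 Anchorage-independent growth: G12C-mutant MIA PaCa-2 plated in soft agar, time-zero plate read the next day when compound was dosed (final DMSO 0.3%). After growth to day 10, MTS-type absorbance at 490/660 nm relative to time zero gave IC50 via four-parameter fitting.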

KRAS G12D = target: T3, KRAS G12D (Homo sapiens, UniProt P01116, G12D); assay: HTRF assay, KRAS G12D interaction with SOS1; format: biochemical; details: bins <500 nM / 500 nM to 1000 nM, read-out: Inhibition of KRAS G12D (IC50)
T3 construct: made in house; host or cells: E. coli, e.g. BL21 (DE3)

KRAS WT = target: T4, KRAS WT (Homo sapiens, UniProt P01116); assay: HTRF assay, wildtype KRAS interaction with SOS1; format: biochemical; details: bins <500 nM / 500 nM to 1000 nM, read-out: Inhibition of KRAS WT (IC50)
T4 construct: made in house; host or cells: E. coli, e.g. BL21 (DE3)
T4 sequence (P01116 1-188 isoform P01116-2): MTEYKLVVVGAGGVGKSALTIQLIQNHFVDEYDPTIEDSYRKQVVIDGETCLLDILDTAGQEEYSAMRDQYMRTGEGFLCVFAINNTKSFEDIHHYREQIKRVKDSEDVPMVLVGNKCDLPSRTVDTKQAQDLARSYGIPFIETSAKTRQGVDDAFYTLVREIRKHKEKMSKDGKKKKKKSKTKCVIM

T2 sequence (P01116 1-188 isoform P01116-2 G12S): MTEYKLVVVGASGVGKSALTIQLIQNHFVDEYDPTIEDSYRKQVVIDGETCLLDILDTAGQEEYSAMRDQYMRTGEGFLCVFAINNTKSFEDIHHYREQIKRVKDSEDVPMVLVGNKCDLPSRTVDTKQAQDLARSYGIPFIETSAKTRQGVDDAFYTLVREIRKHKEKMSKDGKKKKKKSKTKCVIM
T1 sequence (P01116 1-188 isoform P01116-2 G12V): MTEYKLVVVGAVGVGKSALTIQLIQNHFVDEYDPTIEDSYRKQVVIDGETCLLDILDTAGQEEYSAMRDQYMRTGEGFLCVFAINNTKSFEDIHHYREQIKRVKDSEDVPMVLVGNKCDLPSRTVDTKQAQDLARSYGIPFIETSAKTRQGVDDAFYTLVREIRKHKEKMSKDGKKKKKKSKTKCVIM
T3 sequence (P01116 1-188 isoform P01116-2 G12D): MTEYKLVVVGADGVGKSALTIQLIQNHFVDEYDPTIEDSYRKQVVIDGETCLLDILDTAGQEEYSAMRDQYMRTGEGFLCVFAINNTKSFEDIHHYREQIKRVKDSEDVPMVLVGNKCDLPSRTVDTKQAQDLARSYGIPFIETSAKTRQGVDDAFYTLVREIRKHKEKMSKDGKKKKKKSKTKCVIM

**Q.** Which IC50 (KRAS G12V) does the source give for `CCN(c1nc(OC[C@@]23CCCN2C[C@H](F)C3)nc2c(F)c(-c3ccc(F)c4sc(N)c(C#N)c34)c(C(F)(F)F)cc12)[C@@H]1CCN(C(=O)n2cc(C)nc2Cl)[C@@H]1C` [Compound 162, 2-amino-4-(4-(((2R,3R)-1-(2-chloro-4-methyl-1H-imidazole-1-carbonyl)-2-methylpyrrolidin-3-yl)(ethyl)amino)-8-fluoro-2-(((2R,7aS)-2-fluorotetrahydro-1H-pyrrolizin-7a(5H)-yl)methoxy)-6-(trifluoromethyl)quinazolin-7-yl)-7-fluorobenzo[b]thiophene-3-carbonitrile] here?
**A.** < 0.5 µM

**Q.** What about the IC50 (KRAS G12S) of the same compound?
**A.** < 0.5 µM

**Q.** What about the IC50 (MiaPaca2 cells) of the same compound?
**A.** ≤ 0.5 µM

**Q.** And the IC50 (KRAS G12D)?
**A.** < 0.5 µM

**Q.** What about the IC50 (KRAS WT) of the same compound?
**A.** < 0.5 µM

**Q.** Which results are given for `CCN(c1nc(OC[C@@]23CCCN2C[C@H](F)C3)nc2c(F)c(-c3ccc(F)c4sc(N)c(C#N)c34)c(Cl)cc12)[C@@H]1CCN(C(=O)n2ccnc2C)[C@@H]1C` [Compound 163, 2-amino-4-(6-chloro-4-(ethyl((2R,3R)-2-methyl-1-(2-methyl-1H-imidazole-1-carbonyl)pyrrolidin-3-yl)amino)-8-fluoro-2-(((2R,7aS)-2-fluorotetrahydro-1H-pyrrolizin-7a(5H)-yl)methoxy)quinazolin-7-yl)-7-fluorobenzo[b]thiophene-3-carbonitrile]?
**A.** IC50 (KRAS G12V): < 0.5 µM; IC50 (KRAS G12S): < 0.5 µM; IC50 (MiaPaca2 cells): ≤ 0.5 µM; IC50 (KRAS G12D): < 0.5 µM; IC50 (KRAS WT): < 0.5 µM

**Q.** How did the IC50 (KRAS G12V) turn out when `Cc1cn(C(=O)N2CC3(CCCCN(c4nc(OC[C@@]56CCCN5C[C@H](F)C6)nc5c(F)c(-c6ccc(F)c7sc(N)c(C#N)c67)c(Cl)cc45)C3)C2)cn1` [Compound 164, 2-amino-4-(6-chloro-8-fluoro-2-(((2R,7aS)-2-fluorotetrahydro-1H-pyrrolizin-7a(5H)-yl)methoxy)-4-(2-(4-methyl-1H-imidazole-1-carbonyl)-2,6-diazaspiro[3.6]decan-6-yl)quinazolin-7-yl)-7-fluorobenzo[b]thiophene-3-carbonitrile] was run?
**A.** < 0.5 µM

**Q.** And the IC50 (KRAS G12S)?
**A.** < 0.5 µM

**Q.** What about the IC50 (MiaPaca2 cells) of the same compound?
**A.** ≤ 0.5 µM

**Q.** What about the IC50 (KRAS G12D) of the same compound?
**A.** < 0.5 µM

**Q.** What about the IC50 (KRAS WT) of the same compound?
**A.** < 0.5 µM

**Q.** How did the IC50 (KRAS G12V) turn out when `Cc1nc(C#N)cn1C(=O)N1C[C@]2(CCCCN(c3nc(OC[C@@]45CCCN4C[C@H](F)C5)nc4c(F)c(-c5ccc(F)c6sc(N)c(C#N)c56)c(Cl)cc34)C2)[C@H]1C` [Compound 165, 1-((1R,4R)-6-(7-(2-amino-3-cyano-7-fluorobenzo[b]thiophen-4-yl)-6-chloro-8-fluoro-2-(((2R,7aS)-2-fluorotetrahydro-1H-pyrrolizin-7a(5H)-yl)methoxy)quinazolin-4-yl)-1-methyl-2,6-diazaspiro[3.6]decane-2-carbonyl)-2-methyl-1H-imidazole-4-carbonitrile] was run?
**A.** < 0.5 µM

**Q.** What about the IC50 (KRAS G12S) of the same compound?
**A.** < 0.5 µM

**Q.** What about the IC50 (MiaPaca2 cells) of the same compound?
**A.** ≤ 0.5 µM

**Q.** What about the IC50 (KRAS G12D) of the same compound?
**A.** < 0.5 µM

**Q.** And the IC50 (KRAS WT)?
**A.** < 0.5 µM

**Q.** Which results are given for `CC[C@@H]1[C@H](N(CC)c2nc(OC[C@@]34CCCN3C[C@H](F)C4)nc3c(F)c(-c4ccc(F)c5sc(N)c(C#N)c45)c(Cl)cc23)CCN1C(=O)n1cnc(F)n1` [Compound 168, 2-amino-4-(6-chloro-4-(ethyl((2R,3R)-2-ethyl-1-(3-fluoro-1H-1,2,4-triazole-1-carbonyl)pyrrolidin-3-yl)amino)-8-fluoro-2-(((2R,7aS)-2-fluorotetrahydro-1H-pyrrolizin-7a(5H)-yl)methoxy)quinazolin-7-yl)-7-fluorobenzo[b]thiophene-3-carbonitrile]?
**A.** IC50 (KRAS G12V): < 0.5 µM; IC50 (KRAS G12S): < 0.5 µM; IC50 (MiaPaca2 cells): ≤ 0.5 µM; IC50 (KRAS G12D): < 0.5 µM; IC50 (KRAS WT): < 0.5 µM

**Q.** How did the IC50 (KRAS G12V) turn out when `CC(C)[C@@H]1[C@H](N(C)c2nc(OC[C@@]34CCCN3C[C@H](F)C4)nc3c(F)c(-c4ccc(F)c5sc(N)c(C#N)c45)c(Cl)cc23)CCN1C(=O)n1ccnc1` [Compound 169, 4-(4-(((2R,3R)-1-(1H-imidazole-1-carbonyl)-2-isopropylpyrrolidin-3-yl)(methyl)amino)-6-chloro-8-fluoro-2-(((2R,7aS)-2-fluorotetrahydro-1H-pyrrolizin-7a(5H)-yl)methoxy)quinazolin-7-yl)-2-amino-7-fluorobenzo[b]thiophene-3-carbonitrile] was run?
**A.** < 0.5 µM

**Q.** What about the IC50 (KRAS G12S) of the same compound?
**A.** < 0.5 µM

**Q.** What about the IC50 (MiaPaca2 cells) of the same compound?
**A.** ≤ 0.5 µM

**Q.** What about the IC50 (KRAS G12D) of the same compound?
**A.** < 0.5 µM

**Q.** What about the IC50 (KRAS WT) of the same compound?
**A.** < 0.5 µM

**Q.** With `CCN(c1nc(OC[C@@]23CCCN2C[C@H](F)C3)nc2c(F)c(-c3ccc(F)c4sc(N)c(C#N)c34)c(Cl)cc12)[C@@H]1CCN(C(=O)n2cnc(OC)c2)[C@@H]1C` [Compound 170, 2-amino-4-(6-chloro-4-(ethyl((2R,3R)-1-(4-methoxy-1H-imidazole-1-carbonyl)-2-methylpyrrolidin-3-yl)amino)-8-fluoro-2-(((2R,7aS)-2-fluorotetrahydro-1H-pyrrolizin-7a(5H)-yl)methoxy)quinazolin-7-yl)-7-fluorobenzo[b]thiophene-3-carbonitrile] as the compound, how does the IC50 (KRAS G12V) read?
**A.** < 0.5 µM

**Q.** What about the IC50 (KRAS G12S) of the same compound?
**A.** < 0.5 µM

**Q.** And the IC50 (MiaPaca2 cells)?
**A.** ≤ 0.5 µM

**Q.** And the IC50 (KRAS G12D)?
**A.** < 0.5 µM

**Q.** And the IC50 (KRAS WT)?
**A.** < 0.5 µM

**Q.** For `CCN(c1nc(OC[C@@]23CCCN2C[C@H](F)C3)nc2c(F)c(-c3ccc(F)c4sc(N)c(C#N)c34)c(C3CC3)cc12)[C@@H]1CCN(C(=O)n2ccnc2C)[C@@H]1C` [Compound 171, 2-amino-4-(6-cyclopropyl-4-(ethyl((2R,3R)-2-methyl-1-(2-methyl-1H-imidazole-1-carbonyl)pyrrolidin-3-yl)amino)-8-fluoro-2-(((2R,7aS)-2-fluorotetrahydro-1H-pyrrolizin-7a(5H)-yl)methoxy)quinazolin-7-yl)-7-fluorobenzo[b]thiophene-3-carbonitrile], which IC50 (KRAS G12V) is on record?
**A.** < 0.5 µM

**Q.** And the IC50 (KRAS G12S)?
**A.** < 0.5 µM

**Q.** What about the IC50 (MiaPaca2 cells) of the same compound?
**A.** ≤ 0.5 µM

**Q.** What about the IC50 (KRAS G12D) of the same compound?
**A.** < 0.5 µM

**Q.** What about the IC50 (KRAS WT) of the same compound?
**A.** < 0.5 µM

**Q.** What does the source list for `C[C@@H]1[C@H](N(C)c2nc(OC[C@@]34CCCN3C[C@H](F)C4)nc3c(F)c(-c4ccc(F)c5sc(N)c(C#N)c45)c(Cl)cc23)CCN1C(=O)n1cccn1` [Compound 172, 2-amino-4-(6-chloro-8-fluoro-2-(((2R,7aS)-2-fluorotetrahydro-1H-pyrrolizin-7a(5H)-yl)methoxy)-4-(methyl((2R,3R)-2-methyl-1-(1H-pyrazole-1-carbonyl)pyrrolidin-3-yl)amino)quinazolin-7-yl)-7-fluorobenzo[b]thiophene-3-carbonitrile]?
**A.** IC50 (KRAS G12V): < 0.5 µM; IC50 (KRAS G12S): < 0.5 µM; IC50 (MiaPaca2 cells): ≤ 0.5 µM; IC50 (KRAS G12D): < 0.5 µM; IC50 (KRAS WT): < 0.5 µM

**Q.** What does the source list for `CC[C@@H]1[C@H](N(CC)c2nc(OC[C@@]34CCCN3C[C@H](F)C4)nc3c(F)c(-c4ccc(F)c5sc(N)c(C#N)c45)c(Cl)cc23)CCN1C(=O)n1ccnc1` [Compound 173, 2-amino-4-(6-chloro-4-(ethyl((2R,3R)-2-ethyl-1-(1H-imidazole-1-carbonyl)pyrrolidin-3-yl)amino)-8-fluoro-2-(((2R,7aS)-2-fluorotetrahydro-1H-pyrrolizin-7a(5H)-yl)methoxy)quinazolin-7-yl)-7-fluorobenzo[b]thiophene-3-carbonitrile]?
**A.** IC50 (KRAS G12V): < 0.5 µM; IC50 (KRAS G12S): < 0.5 µM; IC50 (MiaPaca2 cells): ≤ 0.5 µM; IC50 (KRAS G12D): < 0.5 µM; IC50 (KRAS WT): < 0.5 µM

**Q.** `Cc1ncn(C(=O)N2C[C@]3(CCCCN(c4nc(OC[C@@]56CCCN5C[C@H](F)C6)nc5c(F)c(-c6ccc(F)c7sc(N)c(C#N)c67)c(Cl)cc45)C3)[C@H]2C2(C)CC2)c1C` [Compound 174, 2-amino-4-(6-chloro-4-((1R,4R)-2-(4,5-dimethyl-1H-imidazole-1-carbonyl)-1-(1-methylcyclopropyl)-2,6-diazaspiro[3.6]decan-6-yl)-8-fluoro-2-(((2R,7aS)-2-fluorotetrahydro-1H-pyrrolizin-7a(5H)-yl)methoxy)quinazolin-7-yl)-7-fluorobenzo[b]thiophene-3-carbonitrile] was tested. Which IC50 (KRAS G12V) did it give?
**A.** < 0.5 µM

**Q.** And the IC50 (KRAS G12S)?
**A.** < 0.5 µM

**Q.** And the IC50 (MiaPaca2 cells)?
**A.** ≤ 0.5 µM

**Q.** What about the IC50 (KRAS G12D) of the same compound?
**A.** < 0.5 µM

**Q.** What about the IC50 (KRAS WT) of the same compound?
**A.** < 0.5 µM

**Q.** How did the IC50 (KRAS G12V) turn out when `CCN(c1nc(OC[C@@]23CCCN2C[C@H](F)C3)nc2c(F)c(-c3ccc(F)c4sc(N)c(C#N)c34)c(C3CC3)cc12)[C@@H]1CCN(C(=O)n2cnc(C)c2C)[C@@H]1C` [Compound 175, 2-amino-4-(6-cyclopropyl-4-(((2R,3R)-1-(4,5-dimethyl-1H-imidazole-1-carbonyl)-2-methylpyrrolidin-3-yl)(ethyl)amino)-8-fluoro-2-(((2R,7aS)-2-fluorotetrahydro-1H-pyrrolizin-7a(5H)-yl)methoxy)quinazolin-7-yl)-7-fluorobenzo[b]thiophene-3-carbonitrile] was run?
**A.** < 0.5 µM

**Q.** And the IC50 (KRAS G12S)?
**A.** < 0.5 µM

**Q.** What about the IC50 (MiaPaca2 cells) of the same compound?
**A.** ≤ 0.5 µM

**Q.** And the IC50 (KRAS G12D)?
**A.** < 0.5 µM

**Q.** And the IC50 (KRAS WT)?
**A.** < 0.5 µM

**Q.** `C[C@@H]1[C@H](N(C)c2nc(OC[C@@]34CCCN3C[C@H](F)C4)nc3c(F)c(-c4ccc(F)c5sc(N)c(C#N)c45)c(Cl)cc23)CCN1C(=O)n1ccnc1C#N` [Compound 176, 1-((2R,3R)-3-((7-(2-amino-3-cyano-7-fluorobenzo[b]thiophen-4-yl)-6-chloro-8-fluoro-2-(((2R,7aS)-2-fluorotetrahydro-1H-pyrrolizin-7a(5H)-yl)methoxy)quinazolin-4-yl)(methyl)amino)-2-methylpyrrolidine-1-carbonyl)-1H-imidazole-2-carbonitrile] was tested. Which IC50 (KRAS G12V) did it give?
**A.** < 0.5 µM

**Q.** And the IC50 (KRAS G12S)?
**A.** < 0.5 µM

**Q.** And the IC50 (MiaPaca2 cells)?
**A.** ≤ 0.5 µM

**Q.** And the IC50 (KRAS G12D)?
**A.** < 0.5 µM

**Q.** And the IC50 (KRAS WT)?
**A.** < 0.5 µM

From patent publication US20260217735A1, “HETEROCYCLES AND USES THEREOF” (Kumquat Biosciences Inc., priority 2023, published 2026)
